# What was measured:
# [1] = biological target: T1, Inhibitor of nuclear factor kappa-B kinase subunit epsilon (Homo sapiens, UniProt Q14164); test: IKKe Biochemical Assay
# T1 sequence (Q14164 whole entry): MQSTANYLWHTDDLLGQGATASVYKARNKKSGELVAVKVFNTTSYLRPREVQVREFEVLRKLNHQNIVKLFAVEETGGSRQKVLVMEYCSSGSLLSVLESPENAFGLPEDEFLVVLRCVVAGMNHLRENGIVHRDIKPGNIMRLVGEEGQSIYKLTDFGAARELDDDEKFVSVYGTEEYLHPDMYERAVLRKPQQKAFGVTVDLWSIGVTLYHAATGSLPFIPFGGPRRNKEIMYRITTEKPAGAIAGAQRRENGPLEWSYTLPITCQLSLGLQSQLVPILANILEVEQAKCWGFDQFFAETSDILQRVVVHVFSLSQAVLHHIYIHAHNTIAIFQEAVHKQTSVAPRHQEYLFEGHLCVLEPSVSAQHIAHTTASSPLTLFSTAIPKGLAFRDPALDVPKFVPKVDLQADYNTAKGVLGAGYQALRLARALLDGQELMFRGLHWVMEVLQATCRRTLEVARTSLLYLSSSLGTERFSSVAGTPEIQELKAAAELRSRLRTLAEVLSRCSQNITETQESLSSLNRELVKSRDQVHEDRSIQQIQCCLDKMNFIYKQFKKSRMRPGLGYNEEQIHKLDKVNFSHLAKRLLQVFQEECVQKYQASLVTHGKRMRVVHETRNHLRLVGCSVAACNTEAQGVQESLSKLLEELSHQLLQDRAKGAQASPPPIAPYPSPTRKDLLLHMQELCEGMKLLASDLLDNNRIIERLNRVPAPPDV
# Description: (§1) Test compounds were transferred into Labcyte polypropylene 384 well plates (P055-25) and diluted to 3 mM using DMSO. 3 mM test compounds were dispensed using Labcyte ECHO dose response module into Greiner 784075 plates (columns 3-12 and 13-22, 10 point 1:4) so that high concentration was 30 uM final. 100 uM of a reference compound (1 uM final high concentration). Backfilling was performed if necessary so that all wells contain 1% DMSO final:add 75 nl DMSO/well into columns 1, 2 and 24 using Labcyte Echo.add 75 nl 1.0 mM staurosporine/well into column 23 using Labcyte Echo (10 uM final)add 4.5 ul enzyme/well using multidrop dispenseradd 3 ul substrate/well using multidrop dispenserincubate at 25° C. for 90 min.add 7.5 ul 2× stop bufferread on labchip ez reader II using IKKε. jobRaw data files were opened in the Caliper LabChip Reviewer program (Version 3.0.265.0 SP2) and peak assignments were adjusted to reflect substrate first with the software's post-run analysis options. A spline-fit baseline was applied using the software's analysis algorithm.
# [2] = biological target: T2, Serine/threonine-protein kinase TBK1 (Homo sapiens, UniProt Q9UHD2); test: TBK Biochemical Assay
# T2 sequence (Q9UHD2 whole entry): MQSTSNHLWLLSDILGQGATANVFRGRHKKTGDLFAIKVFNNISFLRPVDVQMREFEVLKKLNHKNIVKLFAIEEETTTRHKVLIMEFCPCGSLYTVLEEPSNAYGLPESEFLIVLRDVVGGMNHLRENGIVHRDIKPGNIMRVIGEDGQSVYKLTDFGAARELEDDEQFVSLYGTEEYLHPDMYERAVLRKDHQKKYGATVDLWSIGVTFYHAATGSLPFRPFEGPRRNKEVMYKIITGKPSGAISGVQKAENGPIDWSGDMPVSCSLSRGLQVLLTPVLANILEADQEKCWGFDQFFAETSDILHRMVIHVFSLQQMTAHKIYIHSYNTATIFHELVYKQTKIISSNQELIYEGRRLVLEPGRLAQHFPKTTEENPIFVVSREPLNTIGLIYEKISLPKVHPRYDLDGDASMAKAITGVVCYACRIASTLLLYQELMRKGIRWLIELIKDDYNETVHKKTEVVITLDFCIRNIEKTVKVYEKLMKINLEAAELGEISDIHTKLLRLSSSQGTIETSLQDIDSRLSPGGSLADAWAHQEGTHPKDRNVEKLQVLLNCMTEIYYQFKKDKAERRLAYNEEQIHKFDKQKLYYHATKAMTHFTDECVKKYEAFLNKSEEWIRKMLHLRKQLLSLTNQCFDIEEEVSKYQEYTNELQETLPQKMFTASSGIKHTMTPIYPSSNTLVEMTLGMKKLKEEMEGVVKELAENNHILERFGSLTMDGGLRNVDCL
# Description: as §1, with “C. in Heidolph incubator” for “C.”, “buffer using multidrop dispenserread” for “bufferread”, “TBK1.jobRaw” for “IKKε. jobRaw”
smiles,measurement,setting,value
"COc1nc(Nc2cc(-c3ccc(O[C@@H]4CCN(C(=O)[C@@H](C)O)CC4(F)F)c(C#N)c3)ncn2)ccc1N1CCN(C2COC2)CC1 [US11440899, Example 96]",IC50,[1],< 100 nM
same,IC50,[2],< 100 nM

# From BindingDB's records for patent US11440899 (Merck Patent GmbH, 2022)
